The values below come from ChEMBL document CHEMBL1201862, “PubChem BioAssay data set” (2004).

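Dose response: 5 concentrations. Exposure: 48 h. Format: 96-well plates. Endpoint: linear interpolation; highest concentration if not reached. At the GI50, growth is halved.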 Calls of active or inactive are those of the source. Cut-off read from the data, not from the text of the source: active = GI50 up to about 1.1 µM and inactive = higher.

Common to all, as to experiment: inhibition of tumour cell growth, NCI panel, 48 h
The subject of test [1] is HOP-92.
The subject of test [2] is M14.
Test [3] has as its system NCI-H23.
Test [4] has as its system A549.
Test [5] deals with SR.
Test [6] deals with HCT-15.
Test [7] has as its system Malme-3M.
Test [8] relates to OVCAR-8.
For test [9], the system named is HT-29.
The subject of test [10] is SN12C.
The test system of test [11] is LOX IMVI.
The test system of test [12] is 786-0.
The test system of test [13] is HCC 2998.
The subject of test [14] is ACHN.
For test [15], the system named is A498.
Test [16] has as its system SF-295.
Test [17] deals with COLO 205.
In test [18] the test system is NCI-H522.
For test [19], the system named is MOLT-4.
Test [20] concerns CCRF-CEM.

As to `NS(=O)(=O)c1cc(C(=O)O)c(Cl)c([N+](=O)[O-])c1Cl`, the GI50 in test [1] was > 100 µM (inactive); in [2], > 100 µM (inactive); in test [3], > 100 µM (inactive); in test [4], > 100 µM (inactive); in [5], > 100 µM (inactive); in test [6], more than 100 µM. Also, the GI50 in [7], in test [8], in [9], in [10], in test [11] and in test [12] was > 100 µM (inactive) each time. Besides, the GI50 in test [13], in [14], in [15], in test [16], in test [17] and in [18] was > 100 µM (inactive) in each case. For the same compound, the GI50 in [19] and in [20] was > 100 µM (inactive) in each case.

As to `CCSc1c2cc(OC)ccc2nc2ccc(OC)cc12`, the GI50 in test [1] was > 60.8 µM (inactive); in test [2] it was 11.9 µM (inactive); in test [3], 9.44 µM (inactive); in [4], 25.6 µM (inactive); in test [5] it was 2.76 µM (inactive); in test [6] it was 8.34 µM. Also, the GI50 in [7] is 13.7 µM (inactive); in test [8], 16.4 µM (inactive); in [9] it was 17.8 µM (inactive); in test [10], 14.3 µM (inactive); in test [11], 13.2 µM (inactive); in test [12] it was 16 µM (inactive). For the same compound, the GI50 is 7.53 µM (inactive) in test [13]; 18.6 µM (inactive) in test [14]; 9.4 µM (inactive) in test [15]; 22.4 µM (inactive) in [16]; 7.26 µM (inactive) in test [17]; 9.33 µM (inactive) in test [18]. In addition, the GI50 in [19] is 3.22 µM (inactive); in test [20], 5.56 µM (inactive).

As to `CC1(C)CCc2cc3c(cc2O1)OCCC3=O`, the GI50 in [1] is > 100 µM (inactive); in test [2] it was > 100 µM (inactive); in test [3] it was > 100 µM (inactive); in [4], > 100 µM (inactive); in test [5], 58.1 µM (inactive); in [6] it was more than 100 µM. Besides, the GI50 in test [7], in test [8], in test [9], in test [10], in test [11] and in [12] was > 100 µM (inactive) each time. Moreover, the GI50 in [13], in [14], in test [15], in test [16], in test [17] and in test [18] was > 100 µM (inactive) in each case. In addition, the GI50 in [19] and in test [20] was > 100 µM (inactive) in each case.

Consider `CCCCCC[C@H]1C(=O)O[C@H](C)[C@H](NC(=O)c2cccc(NC=O)c2OC)C(=O)O[C@@H](C)[C@@H]1OC(=O)C(C)CC.CCCCCC[C@H]1C(=O)O[C@H](C)[C@H](NC(=O)c2cccc(NC=O)c2OC)C(=O)O[C@@H](C)[C@@H]1OC(=O)CC(C)C` (stereo not given in full), for which the GI50 was 17.5 µM (inactive) in test [1]; 39.7 µM (inactive) in test [2]; 8.49 µM (inactive) in test [3]; 5.9 µM (inactive) in [4]; 5.82 µM (inactive) in test [5]; 14.7 µM in test [6]. Besides, the GI50 in [7] is > 100 µM (inactive); in test [8], 11.6 µM (inactive); in [9] it was 8.59 µM (inactive); in test [10], 29.6 µM (inactive); in test [11], 25.9 µM (inactive); in test [12] it was 18.6 µM (inactive). Also, the GI50 in test [13] was 89.7 µM (inactive); in [14], 5.83 µM (inactive); in test [15], 12.4 µM (inactive); in test [16], 14.5 µM (inactive); in test [17], 7.62 µM (inactive); in [18], 12.2 µM (inactive). For the same compound, the figures for the GI50 in test [19] and in test [20] were 6.65 µM (inactive) and 6.08 µM (inactive), respectively.

As to `O=C(/C=C/c1ccc2c(c1)OCO2)Cc1nc2ccccc2[nH]c1=O`, the GI50 in test [1] is 20.7 µM (inactive); in [2] it was 11.7 µM (inactive); in [3], 29.8 µM (inactive); in test [4], 23.4 µM (inactive); in test [5] it was 25.5 µM (inactive); in [6], 8.95 µM. The GI50 is 18.3 µM (inactive) in test [7]; 28.5 µM (inactive) in test [8]; 28.5 µM (inactive) in test [9]; 24.1 µM (inactive) in [10]; 3.52 µM (inactive) in test [11]; 16.7 µM (inactive) in [12]. In addition, the GI50 was 26.5 µM (inactive) in test [13]; 13.6 µM (inactive) in test [14]; 20.3 µM (inactive) in test [15]; 17.4 µM (inactive) in test [16]; 52.6 µM (inactive) in test [17]; > 100 µM (inactive) in [18]. Also, the GI50 is 38.9 µM (inactive) in [19] and 35.8 µM (inactive) in test [20].

Regarding `C[C@]12CCC3c4ccc(OC(=O)c5ccccc5)cc4CC[C@H]3C1CC[C@@H]2OC(=O)C12OC1CCC2=O` (stereo not given in full), the GI50 in test [1] was 19.7 µM (inactive); in [2] it was 5.79 µM (inactive); in [3] it was 4.73 µM (inactive); in [4] it was 5.64 µM (inactive); in [5] it was 3.31 µM (inactive); in test [6] it was 5.55 µM. For the same compound, the GI50 in [7] was 5.85 µM (inactive); in test [8] it was 4.53 µM (inactive); in test [9], 3.34 µM (inactive); in [10], 5.9 µM (inactive); in test [11], 3.33 µM (inactive); in [12] it was 2.67 µM (inactive). Moreover, the GI50 in test [13] was 23.7 µM (inactive); in [14], 5.27 µM (inactive); in [15], 6.04 µM (inactive); in test [16] it was 12.3 µM (inactive); in test [17], 2.84 µM (inactive); in [18], 2.31 µM (inactive). The GI50 in test [19] is 2.32 µM (inactive); in test [20], 0.959 µM (active).

For the compound `COc1cccc(-c2cc(=O)c3cc(N4CCCCC4)ccc3[nH]2)c1`, the GI50 is 13.1 µM (inactive) in [1]; < 0.0132 µM (active) in test [2]; 0.0204 µM (active) in [3]; < 0.0206 µM (active) in test [4]; < 0.01 µM (active) in test [5]; less than 0.0167 µM in test [6]. Also, the GI50 in [7] was 13.7 µM (inactive); in test [8], 0.026 µM (active); in test [9] it was < 0.0129 µM (active); in test [10], 0.0332 µM (active); in [11], < 0.0177 µM (active); in test [12], < 0.0119 µM (active). For the same compound, the GI50 in [13] was 0.0434 µM (active); in test [14], < 0.0186 µM (active); in [15], 0.0188 µM (active); in [16], 0.0119 µM (active); in test [17], < 0.0139 µM (active); in test [18], < 0.0177 µM (active). Also, the GI50 in test [19] is 0.024 µM (active); in test [20], < 0.01 µM (active).

For the compound `Cc1c[n+]2c3ccccc3c3ccccc3c2s1.[O-][Cl+3]([O-])([O-])[O-]`, the GI50 in test [1] was 16.6 µM (inactive); in test [2], 17.4 µM (inactive); in test [3], 0.422 µM (active); in test [4] it was 4.01 µM (inactive); in test [5], 3.33 µM (inactive); in test [6] it was more than 100 µM. The GI50 in test [7] is 2.49 µM (inactive); in [8], 3.3 µM (inactive); in test [9], 14.1 µM (inactive); in test [10], 2.61 µM (inactive); in test [11], 15.2 µM (inactive); in test [12], 3.37 µM (inactive). Also, the GI50 in test [13] is 3.2 µM (inactive); in test [14], 42.6 µM (inactive); in test [15], 55.6 µM (inactive); in test [16], 5.97 µM (inactive); in test [17], 7.89 µM (inactive); in [18], 1.73 µM (inactive). Further, the GI50 in test [19] is 2.03 µM (inactive); in test [20], 4.1 µM (inactive).

Regarding `CN(Cc1cnc2nc(N)nc(N)c2n1)c1ccc(C(=O)NC(CCC(=O)NCCC(P(=O)(O)O)P(=O)(O)O)C(=O)O)cc1` (stereo not given), the GI50 in [1] was > 100 µM (inactive); in test [2], 4.85 µM (inactive); in test [3], 24.5 µM (inactive); in test [4] it was 11.6 µM (inactive); in test [5], 3.17 µM (inactive); in test [6], 6.67 µM. The GI50 in [7] was > 35.8 µM (inactive); in test [8] it was 7.29 µM (inactive); in test [9], 6 µM (inactive); in [10], 11 µM (inactive); in test [11], 4.38 µM (inactive); in test [12] it was 6.11 µM (inactive). In addition, the GI50 was 71.4 µM (inactive) in test [13]; 11.5 µM (inactive) in test [14]; 78 µM (inactive) in [15]; 18.7 µM (inactive) in test [16]; > 82.6 µM (inactive) in test [17]; > 88.3 µM (inactive) in test [18]. Also, the GI50 in test [19] was 6.5 µM (inactive); in test [20] it was 6.08 µM (inactive).
